Key:
BCL2 G101V [1] = molecular target: BCL2 G101V (Homo sapiens, UniProt P10415, G101V); assay: TR-FRET competitive binding assay, BCL2 G101V; details: BCL2 G101V; Ki determined from IC50; read-out: TR_FRET EKI_Bcl2 G101V
How it was run: (§1)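 Terbium-labelled N-terminal Halo-fusion BCL2 or BCLXL (E. coli), 0.5 nM, competed against fluorescein-labelled PUMA peptide (2 or 20 nM) for 2 h at 23° C in 50 mM Hepes pH 7.5, 150 mM NaCl, 5% DMSO. TR-FRET 520/495 nm ratio gave IC50 by four-parameter fit; Ki derived from IC50.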

BCL2 G101V [2] = assay: TR-FRET competitive binding assay, BCL2 G101V; parameters: species or system human; details: ratio Ki BCL2 G101V / Ki BCL2 WT
How it was run: as §1

BCL2 F104I = BCL2 F104I (Homo sapiens, UniProt P10415, F104I); assay: TR-FRET competitive binding assay, BCL2 F104I; details: Ki determined from IC50, read-out: TR_FRET EKI_Bcl2 F104I
How it was run: as §1

BCL2 D111A = BCL2 D111A (Homo sapiens, UniProt P10415, D111A); assay: TR-FRET competitive binding assay, BCL2 D111A; details: Ki determined from IC50, read-out: TR_FRET EKI_Bcl2 D111A
How it was run: as §1

BCLXL WT = BCLXL WT (Homo sapiens (Human), UniProt Q07817); assay: TR-FRET competitive binding assay, BCLXL WT; details: for Ki: BCLXL WT, Ki determined from IC50, read-out: TR_FRET EKI BclxL; for TR_FRET EKI BCLxL/WT selectivty ratio: ratio Ki BCLxL / Ki BCL2 WT
How it was run: as §1

KMS12PE Bcl2 D103Y = assay: In vitro cytotoxicity CellTiterGlo 72 h, KMS12PE Bcl2 D103Y; assay type: cell-based; details: Homo sapiens, KMS-12-PE, read-out: C50 nM, KMS12PE Bcl2 D103Y
Method: (§2) KMS-12-PE (ACC 606) were purchased from the Leibniz-Institute DSMZ (Braunschweig, Germany) and were grown at 37° C. in a humidified atmosphere with 5% CO2 in media recommended by the suppliers. Lentiviral particles containing Bcl-2 wild type (also named “Bcl2 WT”), Bcl-2 mutated on G101V (also named “Bcl2 G101V”), Bcl-2 mutated on D103Y (also named “Bcl2 D103Y”), Bcl-2 mutated on D103V (also named “Bcl2 D103V”), Bcl-2 mutated on D103E (also named “Bcl2 D103E”), Bcl-2 mutated on F104I (also named “Bcl2 F104I”), Bcl-2 mutated on F104L (also named “Bcl2 F104L”), Bcl-2 mutated on D111A (also named “Bcl2 D111A”), Bcl-2 mutated on A113G (also named “Bcl2 A113G”), Bcl-2 mutated on R129L (also named “Bcl2 R129L”), Bcl-2 mutated on V156D (also named “Bcl2 V156D”) were cloned into pcLV-CMV-DEST-IRES-TagRFP. Lentiviral particles (1×10^6) were mixed with Polybrene at 8 μg/ml and transduced by spinoculation for 1 h at 32° C. and incubated overnight. After 8 days, TagRFP positive-cells were sorted by FACS. BCL2 expression was monitored by immunoblotting using anti-Flag and anti-BCL2 antibodies. Cells were seeded into 96-wells plates and treated with 1:3.16 serial dilution of compounds (9 different concentrations). Cell viability was assessed using CellTiterGlo reagent following treatment for 72 h. Results were normalized to the viability of cells without compounds (control wells). The C50 values were calculated using nonlinear regression algorithms in XCell software.

KMS12PE Bcl2 D111A = assay: In vitro cytotoxicity CellTiterGlo 72 h, KMS12PE Bcl2 D111A; assay type: cell-based; details: Homo sapiens, KMS-12-PE, read-out: C50 nM, KMS12PE Bcl2 D111A
Method: as §2

KMS12PE Bcl2 D103V = assay: In vitro cytotoxicity CellTiterGlo 72 h, KMS12PE Bcl2 D103V; assay type: cell-based; details: Homo sapiens, KMS-12-PE, read-out: C50 nM, KMS12PE Bcl2 D103V
Method: as §2

KMS12PE Bcl2 F104L = assay: In vitro cytotoxicity CellTiterGlo 72 h, KMS12PE Bcl2 F104L; assay type: cell-based; details: Homo sapiens, KMS-12-PE, read-out: C50 nM, KMS12PE Bcl2 F104L
Method: as §2

Chain of BCLXL WT (Q07817 other isoform, or with tags, fused parts or gaps): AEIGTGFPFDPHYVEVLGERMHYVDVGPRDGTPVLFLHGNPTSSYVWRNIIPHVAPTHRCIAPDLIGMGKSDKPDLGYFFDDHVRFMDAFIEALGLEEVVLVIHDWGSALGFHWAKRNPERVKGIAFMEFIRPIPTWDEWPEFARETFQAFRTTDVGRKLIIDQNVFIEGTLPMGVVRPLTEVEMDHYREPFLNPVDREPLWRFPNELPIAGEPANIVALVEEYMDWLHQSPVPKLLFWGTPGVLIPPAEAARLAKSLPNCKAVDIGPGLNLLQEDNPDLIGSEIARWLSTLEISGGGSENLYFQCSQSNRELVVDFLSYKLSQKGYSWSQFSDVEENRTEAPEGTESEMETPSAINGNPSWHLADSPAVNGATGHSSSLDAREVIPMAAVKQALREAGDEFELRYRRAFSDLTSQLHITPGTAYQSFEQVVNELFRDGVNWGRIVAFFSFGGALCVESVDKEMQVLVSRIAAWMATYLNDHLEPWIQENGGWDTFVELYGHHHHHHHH

| Ki (BCL2 G101V [1]) [nM] | TR_FRET EKI G101V/WT selectivty ratio (BCL2 G101V [2]) | Ki (BCL2 F104I) [nM] | Ki (BCL2 D111A) [nM] | Ki (BCLXL WT) [nM] | TR_FRET EKI BCLxL/WT selectivty ratio (BCLXL WT) | SMILES | IC50 (KMS12PE Bcl2 D103Y) [nM] | IC50 (KMS12PE Bcl2 D111A) [nM] | IC50 (KMS12PE Bcl2 D103V) [nM] | IC50 (KMS12PE Bcl2 F104L) [nM] |
| --- | --- | --- | --- | --- | --- | --- | --- | --- | --- | --- |
| 0.5 | 5.7 | 0.47 | 0.23 | 4 | 47.6 | Cc1c(N(C(=O)c2cc(-c3cc4c(cc3C(=O)N3Cc5ccccc5C[C@H]3CN3CCCCC3)CN(C(=O)Cc3ccc(OCCC5CCOCC5)cc3)CC4)n(C)c2C)c2ccc(O)cc2)cc(C#N)n1C [Example 66, N-(5-cyano-1,2-dimethylpyrrol-3-yl)-N-(4-hydroxyphenyl)-1,2-dimethyl-5-[2-(2-{4-[2-(oxan-4-yl)ethoxy]phenyl}acetyl)-7-{[(3S)-3-(piperidin-1-ylmethyl)-3,4-dihydro-1H-isoquinolin-2-yl]carbonyl}-3,4-dihydro-1H-isoquinolin-6-yl]pyrrole-3-carboxamide] | 1.3 | 1.57 | 2.22 | 24.1 |
| 0.4 | 6.8 | 0.43 | 0.26 | 7.1 | 134.0 | Cc1c(C(=O)N(c2ccc(O)cc2)c2cc(C#N)n(C(F)F)c2C)cc(-c2cc3c(cc2C(=O)N2Cc4ccccc4C[C@H]2CN2CCCCC2)CN(C(=O)Cc2ccc(OCCN4CCOCC4)cc2F)CC3)n1C [Example 78, N-[5-cyano-1-(difluoromethyl)-2-methylpyrrol-3-yl]-5-[2-(2-{2-fluoro-4-[2-(morpholin-4-yl)ethoxy]phenyl}acetyl)-7-{[(3S)-3-(piperidin-1-ylmethyl)-3,4-dihydro-1H-isoquinolin-2-yl]carbonyl}-3,4-dihydro-1H-isoquinolin-6-yl]-N-(4-hydroxyphenyl)-1,2-dimethylpyrrole-3-carboxamide] | 1 | 1.14 | 1.59 | 8.71 |
| 0.3 | 5.1 | 0.47 | 0.2 | 8 | 135.6 | Cc1c(C(=O)N(c2ccc(O)cc2)c2cc(C#N)n(C(F)F)c2C)cc(-c2cc3c(cc2C(=O)N2Cc4ccccc4C[C@H]2CN2CCCCC2)CN(C(=O)Cc2ccc(OCCN4CCOCC4)cc2)CC3)n1C [Example 77] | 3.31 | 3.64 | 6.28 | 31.9 |
